Experimental data: patent US20250295646A1, “METHODS OF USE OF T-TYPE CALCIUM CHANNEL MODULATORS” (Praxis Precision Medicines, Inc., priority 2022, published 2025)

Tests used:
[1] = tested on: adult patients with essential tremor; experiment: Essential tremor trial Example 16 Part B open-label titration phase: TETRAS, mADL, ADL efficacy; type: in vivo, human; set-up: reduction in upper limb tremor amplitude / LS mean reduction in upper limb tremor amplitude / reduction in combined upper limb tremor amplitude: concentration or dose not given beside the values; details: Part B OLT
Experimental: (§1) A two part trial (Part A and Part B as described below) was conducted to study the efficacy, safety, tolerability, and pharmacokinetics of the compound of formula (I) in adult patients with essential tremor (ET).
(§2) Participants were males and females ages 18 and older with a clinical diagnosis of ET. Participants who have a history of any other medical, neurological, or psychiatric condition that may explain or cause tremor were excluded. Participants who have previously received treatment with formula (I) in any clinical trial (including Part A of the current trial for participants enrolling in Part B) were also excluded.
In Part B, an open label titration phase and a randomized, double-blind, placebo-controlled trial was conducted. […] During the withdrawal phase, patients either continued receiving formula (I) at their current dose or switched to placebo, depending on the randomization, for 14 days (Day 43 to Day 56).

clinical = details: both, human, plasma, oral, 120 mg
Experimental: Each participant completed 3 study periods: Screening, Treatment period (12 or 31 days), and Safety follow-up.
Participants were healthy males and females between the ages of 18 and 55 years old.
In Part B, a randomized controlled trial was conducted.

[2] = tested on: adult patients with essential tremor; experiment: Essential tremor trial Example 16 Part A (open label 20-40 mg): TETRAS efficacy; type: in vivo, human; details: for TETRAS CULS Score CFB LS Mean / TETRAS PS Item 6: Archimedes Spiral (Left) Score CFB LS Mean / TETRAS PS Item 6: Archimedes Spiral (Right) Score CFB LS Mean / TETRAS PS Item 7: Handwriting Score CFB LS Mean / TETRAS PSTS Score CFB LS Mean / TETRAS ULS Score CFB LS Mean / TETRAS CULS CTA LS Mean % / TETRAS PS Item 6: Archimedes Spiral (Left) CTA LS Mean % / TETRAS PS Item 6: Archimedes Spiral (Right) CTA LS Mean % / TETRAS PS Item 7: Handwriting CTA LS Mean % / TETRAS PSTS CTA LS Mean % / TETRAS ULS CTA LS Mean %: FAS
Experimental: as §1, §2
In Part A, an open label trial was conducted.

[3] = Day 7, subset with baseline upper limb scores ≥10
[4] = Day 21, subset with baseline upper limb scores ≥10
[5] = Day 7, change from pre-dose baseline
[6] = Day 7, change in tremor amplitude from pre-dose baseline
[7] = Day 14, change from pre-dose baseline
[8] = Day 14, change in tremor amplitude from pre-dose baseline
[9] = Day 21 (FU Assessment), change from pre-dose baseline
[10] = Day 21 (FU Assessment), change in tremor amplitude from pre-dose baseline

Compound: CC(C)(C)NC(=O)CN1CCC(CNC(=O)c2cc(F)cc(Cl)c2)CC1 [compound of formula (I), N-((1-(2-(tert-butylamino)-2-oxoethyl)piperidin-4-yl)methyl)-3-chloro-5-fluorobenzamide]
- ADL, LS mean change from pre-dose baseline [1, 3]: −2.222
- LS mean reduction in upper limb tremor amplitude [1, 3]: 22.9%
- mADL, LS mean change from pre-dose baseline [1, 3]: −3.011
- TETRAS ADL score, LS mean change from pre-dose baseline ([1]; Day 21): −3.475
- TETRAS combined upper limb score, LS mean change from pre-dose baseline ([1]; Day 21): −1.320
- TETRAS upper limb score, LS mean change from pre-dose baseline ([1]; Day 21): −1.143
- mADL score, LS mean change from pre-dose baseline ([1]; Day 21): −2.812
- reduction in combined upper limb tremor amplitude ([1]; Day 21): 12.9%
- reduction in upper limb tremor amplitude ([1]; Day 21): 19.7%
- ADL, LS mean change from pre-dose baseline [1, 4]: −4.444
- LS mean reduction in upper limb tremor amplitude [1, 4]: 26.7%
- mADL, LS mean change from pre-dose baseline [1, 4]: −3.773
- TETRAS ADL score, LS mean change from pre-dose baseline ([1]; Day 42): −8.207
- TETRAS combined upper limb score, LS mean change from pre-dose baseline ([1]; Day 42): −1.882
- TETRAS upper limb score, LS mean change from pre-dose baseline ([1]; Day 42): −2.090
- mADL score, LS mean change from pre-dose baseline ([1]; Day 42): −6.669
- reduction in combined upper limb tremor amplitude ([1]; Day 42): 17.9%
- reduction in upper limb tremor amplitude ([1]; Day 42): 33.0%
- AUC (clinical): ≥ 4650 ng·h/mL
- Cmax (clinical): ≥ 390 ng/mL
- TETRAS combined upper limb score, LS mean change from pre-dose baseline ([2]; Day 7): −1.667
- TETRAS upper limb score, LS mean change from pre-dose baseline ([2]; Day 7): −1.427
- reduction in combined upper limb tremor amplitude ([2]; Day 7): 16.0%
- reduction in upper limb tremor amplitude ([2]; Day 7): 23.9%
- TETRAS combined upper limb score, LS mean change from pre-dose baseline ([2]; Day 14): −4.239
- TETRAS upper limb score, LS mean change from pre-dose baseline ([2]; Day 14): −2.912
- reduction in combined upper limb tremor amplitude ([2]; Day 14): 35.8%
- reduction in upper limb tremor amplitude ([2]; Day 14): 42.8%
- TETRAS combined upper limb score, LS mean change from pre-dose baseline ([2]; Day 21 follow-up): −0.278
- reduction in combined upper limb tremor amplitude ([2]; Day 21 follow-up): 2.9%
- reduction in upper limb tremor amplitude ([2]; Day 21 follow-up): 20.3%
- TETRAS upper limb score, LS mean change from pre-dose baseline ([2]; Day 21 follow-up (1 week after cessation)): −1.183
- TETRAS CULS Score CFB LS Mean [2, 5]: −1.667
- TETRAS PS Item 6: Archimedes Spiral (Left) Score CFB LS Mean [2, 5]: −0.213
- TETRAS PS Item 6: Archimedes Spiral (Right) Score CFB LS Mean [2, 5]: −0.091
- TETRAS PS Item 7: Handwriting Score CFB LS Mean [2, 5]: −0.012
- TETRAS PSTS Score CFB LS Mean [2, 5]: −1.990
- TETRAS ULS Score CFB LS Mean [2, 5]: −1.427
- TETRAS CULS CTA LS Mean % [2, 6]: −16.0%
- TETRAS PS Item 6: Archimedes Spiral (Left) CTA LS Mean % [2, 6]: −21.8%
- TETRAS PS Item 6: Archimedes Spiral (Right) CTA LS Mean % [2, 6]: −9.9%
- TETRAS PS Item 7: Handwriting CTA LS Mean % [2, 6]: −1.4%
- TETRAS PSTS CTA LS Mean % [2, 6]: −13.3%
- TETRAS ULS CTA LS Mean % [2, 6]: −23.9%
- TETRAS CULS Score CFB LS Mean [2, 7]: −4.239
- TETRAS PS Item 6: Archimedes Spiral (Left) Score CFB LS Mean [2, 7]: −0.468
- TETRAS PS Item 6: Archimedes Spiral (Right) Score CFB LS Mean [2, 7]: −0.346
- TETRAS PS Item 7: Handwriting Score CFB LS Mean [2, 7]: −0.348
- TETRAS PSTS Score CFB LS Mean [2, 7]: −5.163
- TETRAS ULS Score CFB LS Mean [2, 7]: −2.912
- TETRAS CULS CTA LS Mean % [2, 8]: −35.8%
- TETRAS PS Item 6: Archimedes Spiral (Left) CTA LS Mean % [2, 8]: −41.7%
- TETRAS PS Item 6: Archimedes Spiral (Right) CTA LS Mean % [2, 8]: −32.9%
- TETRAS PS Item 7: Handwriting CTA LS Mean % [2, 8]: −33.0%
- TETRAS PSTS CTA LS Mean % [2, 8]: −31.0%
- TETRAS ULS CTA LS Mean % [2, 8]: −42.8%
- TETRAS CULS Score CFB LS Mean [2, 9]: −0.278
- TETRAS PS Item 6: Archimedes Spiral (Left) Score CFB LS Mean [2, 9]: 0.201
- TETRAS PS Item 6: Archimedes Spiral (Right) Score CFB LS Mean [2, 9]: −0.061
- TETRAS PS Item 7: Handwriting Score CFB LS Mean [2, 9]: 0.330
- TETRAS PSTS Score CFB LS Mean [2, 9]: −1.293
- TETRAS ULS Score CFB LS Mean [2, 9]: −1.183
- TETRAS CULS CTA LS Mean % [2, 10]: −2.9%
- TETRAS PS Item 6: Archimedes Spiral (Left) CTA LS Mean % [2, 10]: 20.7%
- TETRAS PS Item 6: Archimedes Spiral (Right) CTA LS Mean % [2, 10]: −6.7%
- TETRAS PS Item 7: Handwriting CTA LS Mean % [2, 10]: 31.6%
- TETRAS PSTS CTA LS Mean % [2, 10]: −8.9%
- TETRAS ULS CTA LS Mean % [2, 10]: −20.3%
